Measurements as given in patent US7968526B2, “Antisense oligonucleotides directed to ribonucleotide reductase R2 and uses thereof in the treatment of cancer” (Lorus Therapeutics Inc., priority 2003, dated 2011).
“Also recorded” adds a separate entry of the source.

Columns and labels:
Format in all cases: in vivo, human cells in mice
[1] = system: DU145 human prostatic cancer cells; assay: DU145 prostatic tumour xenograft in SCID mice, combination with mitoxantrone (1.5)
Experimental: After 52 days the mice were sacrificed and the tumours weighed. […] In both experiments, PC-3 human prostatic cancer cells (1×10^7 cells in 100 μl of PBS) were subcutaneously injected into the right flank of 6-7 weeks old male SCID mice. After the size of tumour reached an approximate volume of 50 mm^3, 14 days post tumour cell injection, SEQ ID NO: 1 was administered by bolus infusion into the tail vein every other day at 10 mg/kg 18 times (FIG. 4A) or 17 times (FIG. 4B), respectively. Control animals received saline alone for the same period. Antitumour effect of SEQ ID NO:1 was further compared to that of mitoxantrone (novantrone) alone or in combination. Mitoxantrone was administered intravenously once at the beginning of the treatments at a dose of 2 mg/kg (FIG. 4A) or once a week for four weeks at a reduced dose of 0.8 mg/kg (FIG. 4B). All treatments were stopped at day 50 (FIG. 4A) or 48 (FIG. 4B), respectively. A day after the last treatment, tumours were excised from the animals and their weights were measured. […] In both experiments, DU145 human prostatic cancer cells (1×10^7 cells in 100 μl of PBS) were subcutaneously injected into the right flank of 6-7 weeks old male SCID mice. After the size of tumour reached an approximate volume of 50 mm^3, 13 (FIG. 5A) or 11 (FIG. 5B) days post tumour cell injection, SEQ ID NO:1 was administered by bolus infusion into the tail vein every other day at 10 mg/kg 15 times (FIG. 5A) or 14 times (FIG. 5B), respectively. Control animals received saline alone for the same period. Antitumour effect of SEQ ID NO:1 was further compared to that of mitoxantrone (novantrone) alone or in combination. Mitoxantrone was administered intravenously once at the beginning of the treatments at a dose of 2 mg/kg (FIG. 5A) or once a week for four weeks at a reduced dose of 0.8 mg/kg (FIG. 5B). All treatments were stopped at day 42 (FIG. 5A) or 38 (FIG. 5B), respectively. A day after the last treatment, tumours were excised from the animals and their weights were measured.

[2] = system: LS513 multi-drug resistant colon carcinoma cells; assay: LS513 multi-drug resistant colon carcinoma xenograft in SCID mice, combination with CPT-11 (2.8); settings: SEQ ID NO:1 10 mg/kg i.v. every other day, CPT-11 20 mg/kg/day i.p. 5 days
Experimental: BxPC-3 is a gemcitabine resistant call line. […] Gemcitabine was administered intravenously every three days at a dose of 100 mg/kg. Antitumour activities were estimated by the inhibition of tumour volume, which was measured with caliper. Each point represents mean tumour volume calculated from 10 animals per experimental group. […] Hela S3 is a hydroxyurea resistant cell line. […] Hydroxyurea was administered intraperitoneally every day at a dose of 250 mg/kg for 10 days. Cisplatin was administered intravenously once a week for three weeks at a dose of 4 mg/kg. Antitumour activities were estimated by the inhibition of tumour volume, which was measured with caliper. Each point represents mean tumour volume calculated from 10 animals per experimental group. […] Cisplatin was administered intravenously once a week for three weeks at a dose of 4 mg/kg. Taxol was administered intravenously once a week for three weeks at a dose of 10 mg/kg. Antitumour activities were estimated by the inhibition of tumour volume, which was measured with caliper. Each point represents mean tumour volume calculated from 10 animals per experimental group. […] Taxol was administered i.p. once a week at a dose of 10 mg/kg. Antitumour activities were estimated by the inhibition of tumour volume (FIG. 12A), which was measured with calipers. Each point represents mean tumour volume calculated from 10 animals per experimental group. […] Antitumour activities were estimated by the inhibition of tumour volume, which was measured with caliper. Each point represents mean tumour volume calculated from 9-10 animals per experimental group. […] Antitumour activities were estimated by the inhibition of tumour volume, which was measured with caliper. Each point represents mean tumour volume calculated from 10 animals per experimental group. […] Anti-tumour activity was estimated by the inhibition of tumour volume, which was measured with caliper. Each point represents mean tumour volume calculated from 10 animals per experimental group. […] Antitumour activities were estimated by the inhibition of tumour volume, which was measured with caliper. […]

[3] = system: MDA-MB-231 human breast cancer cells; assay: MDA-MB-231 breast tumour growth in CD-1 nude mice (3.3)
Experimental: (§1) Treatments lasted for 14 days thereafter. Antitumour activities were estimated by the inhibition of tumour volume, which was measured with a caliper on four different occasions over the treatment period. Each point represents mean tumour volume calculated from 5 animals per experimental group. […] Control animals (control) received saline alone for the same period. At the end of the treatments, the animals were sacrificed, tumours were excised and their weights were measured. Each bar represents mean tumour weight calculated from 6 animals per experimental group. […] Treatments lasted for 24 days thereafter. Antitumour activities were estimated by the inhibition of tumour volume, which was measured with a caliper at two-day intervals over the treatment period. Each point represents mean tumour volume calculated from 4 animals per experimental group. […] Treatments lasted for 24 days thereafter. Antitumour activities were estimated by the inhibition of tumour volume, which was measured with a caliper at two-day intervals over the treatment period. Each point represents mean tumour volume calculated from 4 animals per experimental group. […] Each point represents mean tumour volume calculated from 5 animals per experimental group. […] Antitumour activities were estimated by the inhibition of tumour volume, which was measured with a caliper on four different occasions over 16-day period. Each point represents mean tumour volume calculated from 5 animals per experimental group. […] Antitumour activities were estimated by the inhibition of tumour volume, which was measured with a caliper at two-day intervals over the treatment period. Each point represents mean tumour volume calculated from 5 animals per experimental group. […] Antitumour activities were estimated by the inhibition of tumour volume, which was measured with a caliper at various time intervals over the span of 30 days. Each point represents mean tumour volume calculated from 6 animals per experimental group. […] Antitumour activities were estimated by the inhibition of tumour volume, which was measured with a caliper. […]

[4] = system: NCI-H460 human lung cancer cells; assay: NCI-H460 lung tumour growth in CD-1 nude mice (3.5)
Experimental: as §1

[5] = system: Caki renal tumour xenografts; assay: Caki renal tumour xenografts in SCID/beige mice (immune stimulation); settings: Caki renal tumour xenografts in SCID/beige mice (lack B, T and NK cell function)
Experimental: To directly determine whether SEQ ID NO:1 treatment results in CpG stimulation of NK-mediated anti-tumour activity, the efficacy of SEQ ID NO:1 on human tumour xenografts in SCID/beige mice was assessed (FIG. 32). SCID/beige mice lack B, T and NK cell function and as such these mice cannot mount a significant innate or acquired immune response.

5′-GGCTAAATCGCTCCACCAAG-3′ (all phosphorothioate, sugars by position and methylation of C not given here) [SEQ ID NO: 1, fully phosphorothioated antisense oligonucleotide that hybridizes to the coding region of R2 mRNA]
Tumour weight as % of saline control ([1]; DU145 (prostatic), SCID, second of two printed values (two independent experiments), SEQ ID NO:1 10 mg/kg i.v. every other day, mitoxantrone i.v.): 41% | Antitumour effect (tumour weight, FIG. 5A) ([1]; DU145, SCID mice, SEQ ID NO:1 10 mg/kg i.v. every other day 15 times, mitoxantrone 2 mg/kg i.v. once): significant delay of tumour growth compared to saline control | Tumour weight as % of saline control ([2]; LS513 (colon) multi-drug resistant (CPT-11 sensitive), SCID): 49% | Antitumour effect (FIG. 16) ([2]; LS513, SCID mice): significant delay of tumour growth compared to saline control; also recorded: as effective as CPT-11 | Inhibition of tumour size ([3]; Human Breast Adenocarcinoma): Inhibition of tumour size by approximately 80% | Inhibition of tumour weight ([3]; Human Breast Adenocarcinoma, Day 31 after tumour implantation): ~80% on Day 31 after tumour implantation | Inhibitory effect on tumour growth (tumour volume, FIG. 18B) ([3]; MDA-MB-231, CD-1 nude mice, 10 mg/kg i.v. every other day, 24 days): strong inhibitory effects on the growth of human breast carcinoma | Inhibition of tumour weight ([4]; Human Lung Carcinoma): ~70% | Inhibition of tumour size ([4]; Human Lung Carcinoma in CD-1 Nude mice, Days 14 to 19 after tumour implantation): Inhibition of tumour size by approximately 85% | Inhibitory effect on tumour growth (tumour volume, FIG. 18D) ([4]; NCI-H460, CD-1 nude mice, 10 mg/kg i.v. every other day, 14 days): strong inhibitory effects on the growth of human lung carcinoma | Anti-tumour effect (FIG. 32) [5]: effectively treated; also recorded: equivalent in extent and kinetics to that obtained in the SCID mouse model; also recorded: anti-tumour activity is specific to the R2 complementary sequence
